Results: ChEMBL document CHEMBL3297650, “Discovery of novel oxindole derivatives as potent α-glucosidase inhibitors” (Bioorg Med Chem, 2014)

Experiment: Inhibition of yeast alpha-glucosidase (unknown origin) using para-nitrophenyl glucopyranoside as substrate preincubated for 10 mins before substrate addition measured after 30 mins by spectrophotometry
Parameters: species or system Saccharomyces cerevisiae

| SMILES | IC50 |
| --- | --- |
| COc1ccc(/C=C2/C(=O)Nc3cc(Cl)ccc32)cc1OC | 411 µM |
| O=C1Nc2cc(Cl)ccc2/C1=C\c1ccc(O)c(O)c1 | 2.71 µM |
| O=C1Nc2cc(Cl)ccc2/C1=C\c1ccccc1[N+](=O)[O-] | 11.4 µM |
| CCOc1cccc(/C=C2/C(=O)Nc3cc(Cl)ccc32)c1O | 37.9 µM |
| O=C1Nc2cc(Cl)ccc2/C1=C\c1cccc(O)c1 | 15.2 µM |
| O=C1Nc2cc(Cl)ccc2/C1=C\c1ccc(O)cc1 | 24.7 µM |
| O=C1Nc2cc(Cl)ccc2/C1=C\c1ccc(Cl)cc1Cl | 55.6 µM |
| COc1cccc(/C=C2/C(=O)Nc3cc(Cl)ccc32)c1O | 72.2 µM |
| O=C1Nc2cc(Cl)ccc2/C1=C\c1ccc([N+](=O)[O-])cc1 | 84.4 µM |
| CN(C)c1ccc(/C=C2/C(=O)Nc3cc(Cl)ccc32)cc1 | 91.2 µM |
| O=C1Nc2cc(Cl)ccc2/C1=C\c1ccccc1 | 196 µM |
| COc1ccc(/C=C2/C(=O)Nc3cc(Cl)ccc32)c(OC)c1OC | 341 µM |
| O=C1Nc2cc(Cl)ccc2/C1=C\c1cccc2ccccc12 | 102 µM |
| O=Cc1ccc(/C=C2/C(=O)Nc3cc(Cl)ccc32)cc1 | 110 µM |
| O=C1Nc2cc(Cl)ccc2/C1=C\c1ccccc1Cl | 73.1 µM |
| CCOc1ccc(/C=C2/C(=O)Nc3cc(Cl)ccc32)cc1 | 99.7 µM |
| CSc1ccc(/C=C2/C(=O)Nc3cc(Cl)ccc32)cc1 | 51.8 µM |
| COc1ccc(O)c(/C=C2/C(=O)Nc3cc(Cl)ccc32)c1 | 82.2 µM |
| COc1ccc(/C=C2/C(=O)Nc3cc(Cl)ccc32)cc1 | 108 µM |
| O=C1Nc2cc(Cl)ccc2/C1=C\c1ccco1 | 173 µM |
| Cc1ccc(/C=C2/C(=O)Nc3cc(Cl)ccc32)cc1 | 115 µM |
| O=C1Nc2cc(Cl)ccc2/C1=C\c1c2ccccc2cc2ccccc12 | 17.3 µM |
| O=C1Nc2cc(Cl)ccc2/C1=C\c1c(Cl)cccc1Cl | 52.9 µM |
| CC(C)c1ccc(/C=C2/C(=O)Nc3cc(Cl)ccc32)cc1 | 14.3 µM |
| COc1cccc(/C=C2/C(=O)Nc3cc(Cl)ccc32)c1 | 139 µM |
